Source: publication PMC11345766, “Computational Design of Pore-Forming Peptides with Potent Antimicrobial and Anticancer Activities” (Journal of Medicinal Chemistry, 2024)
Read-outs that look alike come from different tables or passages of the source. Ends that are not written are not given here.

What was measured:
[1] = tested on: MOLM-13, MEC-1 and SU-DHL-4 cancer cell lines; conditions: read-out: IC50 values over three cancer cell lines; after 24 h of incubation; physiological pH
Procedure: Anticancer activity of peptides against acute myeloid leukemia MOLM-13, chronic lymphocytic leukemia MEC-1, and diffuse large B-cell lymphoma SU-DHL-4 cell lines was tested using a WST cell viability assay. Cells were cultured in 75 cm^2 culture flasks at 37 °C in 5% CO2 according to the DSMZ recommendations before the start of the experiment. Then, the cells were seeded into 96-well plates in quadruplicate at 2.5 × 10^4 cells/well for SU-DHL-4, and 5 × 10^4 cells/well for MEC-1 and MOLM-13. Cells were treated with either peptides or PBS alone (negative control) for 24–72 h at 37 °C in 5% CO2. After incubation, cell viability was measured by WST-1 (Roche) according to the manufacturer’s instructions using Tecan microplate reader Infinite M200 PRO Plex and expressed as percentage compared to control.

[2] = tested on: HL-60, K-562, MCF-7 and HCT-116 cells; assay: Viability by flow cytometry DiOC6/7AAD staining, effect of pH and media; type: cell-based, human; conditions: 10 μM, 1 h; RPMI, DMEM, PBS at pH 8, 7, 6 and ∼7.6
Procedure: To investigate the effect of pH and media on anticancer activity, we further tested the peptides against four cell lines, HL-60, K-562, and MCF-7, and the colon cancer cells HCT-116, cultured in three different media, namely, RPMI, DMEM, and PBS, each adjusted to three different pH values 8, 7, and 6, and additionally one case without pH adjustment (∼7.6) (Figure 6c). To avoid pH changes due to the natural buffering of the CO2-bicarbonate system used in cell culture, the peptides were tested at a concentration of 10 μM for only 1 h, as the cell lysis effect was already apparent within 30 min of exposure (Figure S9d).
Effects of pH and culture medium on the anticancer activity of peptides against acute myeloid leukemia HL-60, chronic myeloid leukemia K-562, breast adenocarcinoma MCF-7, and colon cancer cells HCT-116 cultured in three different media RPMI (#21875034, Gibco), DMEM (#LM-D1110/500, Biosera), and PBS adjusted to three different pH values 8, 7, and 6, and a medium without pH adjustment (∼7.6), were tested using flow cytometry DiOC6/7AAD (3,3-dihexyloxacarbocyanine iodide/7-amino-actinomycin D) staining assay, as described previously.[102] Media pH was adjusted twice, i.e., 1 day before the experiment and immediately before the experiment. Medium was supplemented with 10% heat-inactivated FBS, glutamine, sodium pyruvate, and antibiotics (100 U/mL penicillin and 100 μg/mL streptomycin). […] To determine cell viability, cells were incubated with DiOC6 (Thermo Fisher Scientific) and 7AAD (Thermo Fisher Scientific) for 15 min at 37 °C and cell viability was measured using a BriCyte E6 flow cytometer (Mindray); viable cells were considered as DiOC6-positive and 7AAD-negative.
The effect of pH on peptide activity in cancer cells was evaluated by the multiway ANOVA followed by Tukey post hoc test. Regarding the comparison of the effect of the medium, we analyzed the data from Figure 6c by comparing RPMI medium and DMEM of the same pH, and statistical significance was assessed using the multiway ANOVA followed by Tukey post hoc test. […]

[3] = Procedure: Cytotoxicity against human immortalized keratinocytes HaCaT, human alveolar basal epithelial A549 (derived from adenocarcinoma), and murine macrophages RAW 264.7 was tested using MTT [3-(4,5-dimethylthiazol-2-yl)-2,5-diphenyltetrazolium bromide] assay. Cells were cultured in Dulbecco’s modified Eagle’s medium (DMEM) containing 4 mM glutamine for HaCaT, or 2 mM glutamine for A549 and RAW 264.7 cells, supplemented with 10% heat-inactivated fetal bovine serum (FBS) and antibiotics (0.1 mg/mL penicillin and streptomycin). Nonessential amino acids (NEAA) and sodium pyruvate (1 mM) were added for macrophages. Cell lines were grown in 25 and 75 cm^2 flasks at 37 °C in a humidified atmosphere with 5% CO2. Cells were suspended in DMEM, containing glutamine, NEAA, and sodium pyruvate (as described above), supplemented with 2% FBS, plated in 96-well plates at 4 × 10^4 cells/well, and incubated at 37 °C in a 5% CO2 atmosphere. After overnight incubation, the medium was replaced with fresh DMEM supplemented with peptides at different concentrations: 2, 4, 8, 16, 32, 64, and 128 μM. Negative controls were cells without peptides. […] After 4 h of incubation, acidified isopropanol was added to dissolve formazan crystals and measured for OD570 using Tecan microplate reader Infinite M200 (Salzburg, Austria).
[4] = tested on: normal B and T lymphocytes, granulocytes, and monocytes in whole blood; assay: Viability by flow cytometric staining in whole blood; type: cell-based, human; conditions: up to the highest tested concentration of 50 μM; 16 h
Procedure: Finally, we tested the effect of LP1 and LP40 on healthy primary cells in whole blood from a healthy donor (Figure S11).
The whole blood was seeded in a 96-well plate at 200 μL/well and treated with peptides for 16 h. The samples were then stained with anti-CD3 (FITC, Sony), anti-CD14 (APC-Cy7, Sony), and anti-CD19 (PE, Beckman Coulter) antibodies and incubated for 20 min at room temperature in the dark. The cells were then incubated with red blood cell lysis buffer for 10 min at room temperature, centrifuged, resuspended in PBS containing SYTOX Blue Dead Cell Stain (Thermo Fisher Scientific) and measured using a FACSVerse flow cytometer (BD Biosciences).

[5] = remark: listed apart in the source
Procedure: (§1) Cytotoxicity against human immortalized keratinocytes HaCaT, human alveolar basal epithelial A549 (derived from adenocarcinoma), and murine macrophages RAW 264.7 was tested using MTT [3-(4,5-dimethylthiazol-2-yl)-2,5-diphenyltetrazolium bromide] assay. Cells were cultured in Dulbecco’s modified Eagle’s medium (DMEM) containing 4 mM glutamine for HaCaT, or 2 mM glutamine for A549 and RAW 264.7 cells, supplemented with 10% heat-inactivated fetal bovine serum (FBS) and antibiotics (0.1 mg/mL penicillin and streptomycin). Nonessential amino acids (NEAA) and sodium pyruvate (1 mM) were added for macrophages. Cell lines were grown in 25 and 75 cm^2 flasks at 37 °C in a humidified atmosphere with 5% CO2. Cells were suspended in DMEM, containing glutamine, NEAA, and sodium pyruvate (as described above), supplemented with 2% FBS, plated in 96-well plates at 4 × 10^4 cells/well, and incubated at 37 °C in a 5% CO2 atmosphere. After overnight incubation, the medium was replaced with fresh DMEM supplemented with peptides at different concentrations: 2, 4, 8, 16, 32, 64, and 128 μM. Negative controls were cells without peptides. After 24 h of peptide treatment at 37 °C in a 5% CO2 atmosphere, medium was replaced with Hank’s buffer (136 mM NaCl, 0.34 mM Na2HPO4, 0.44 mM KH2PO4, 5.4 mM KCl, 4.1 mM NaHCO3, supplemented with 5.5 mM D-glucose) containing 0.5 mg/mL MTT. Mitochondrial dehydrogenases converted soluble yellow dye MTT to insoluble purple formazan. After 4 h of incubation, acidified isopropanol was added to dissolve formazan crystals and measured for OD570 using Tecan microplate reader Infinite M200 (Salzburg, Austria).

[6] = single intraperitoneal dose at 10 times the MIC
Procedure: Neutropenic mice were infected intramuscularly (in the right thigh) with 10^6 cells per mL of Gram-negative A. baumannii (ATCC 19606).
(a) Schematic of the deep thigh infection model in which bacteria are injected intramuscularly at day 4 and peptides are administered intraperitoneally also at day 4 to assess their anti-infective activity. Mice were euthanized 4 days postinfection (day 8). Each group consisted of six mice (n = 6), and the bacterial loads used to infect the mice derived from three different inocula. […] Polymyxin B (0.006 mg/kg) and levofloxacin (0.014 mg/kg) were used as the reference antibiotics. Statistical significance was done using one-way ANOVA followed by Dunnett’s test. Violin plots represent the median, upper quartile, and lower quartile. (c) Mouse weight was monitored to exclude possible toxic effects of the peptides.
Six-week-old female CD-1 mice (obtained from Charles River; stock number 18679700-022) underwent neutropenia induction via two intraperitoneal doses of cyclophosphamide (150 mg kg^–^1) administered with a 72 h interval. One day later, the mice received an intramuscular injection containing A. baumannii ATCC 19606 (10^6 CFU mL^–1) in the right thigh. Bacteria were cultured in LB broth, washed twice with PBS (pH 7.4), and resuspended to the desired concentration. […] Polymyxin B (0.006 mg/kg) and levofloxacin (0.014 mg/kg) were used as the reference antibiotics. Prior to each injection, mice were anesthetized with isoflurane and their respiratory rate and pedal reflexes were monitored. Subsequently, we observed the infection establishment and euthanized the mice. The infected area was excised 4 days postinfection (i.e., 8 days after the beginning of the experiment), homogenized using a bead beater for 20 min (25 Hz), and 10-fold serially diluted for CFU quantification on MacConkey agar plates. Each experimental group comprised three mice. All experiments were conducted blindly, and no animals were excluded from the analysis. Statistical significance was assessed using one-way ANOVA followed by Dunnett’s test on log10-transformed data to mitigate outlier effects; p values are reported for each group, with all groups compared to the untreated control group.

[7] = remark: listed apart in the source
Procedure: as §1

[8] = tested on: S. carnosus (CCM 4838T); assay: microbe, parasite or virus in culture; type: cell-based, Staphylococcus carnosus; conditions: CCM 4838, 24 h; read-out: Antimicrobial activity (MIC) S. carnosus (CCM 4838T)
From the text: (§2) To test antimicrobial activity, all peptides were initially screened, in a broth microdilution assay, against Gram-negative Escherichia coli (TOP10) and Gram-positive Staphylococcus carnosus (CCM 4838T) Biosafety Level 1 (BSL-1) bacteria (Table 2). […] Four other mutants (LP3, LP26, LP36, and LP39) had higher activity than LP1 against E. coli, and two mutants (LP23 and LP32) had higher activity than LP1 against S. carnosus. Six mutants (LP29, LP30, LP31, LP33, LP40, and LP43) were not active against one or both bacteria, even at the highest concentration tested (50 μM).
(§3) Antimicrobial activity against E. coli TOP10 and S. carnosus CCM 4838T was tested using the broth microdilution assay. Bacteria were cultured in MHA Petri dish for 24 h, subcultured in an MHB test tube for 6 h at 37 °C, and diluted to 10^6 CFU/mL (OD600). […] Dilution series was prepared for concentrations 50 to 0.1 μM in a flat-bottom 96-well plate, inoculated with bacteria, and incubated for 24 h at 37 °C. Growth control wells were free from test compounds, and sterility control wells were free from bacteria. Bacterial MIC was determined as the lowest concentration of test compounds that inhibited visible growth of bacteria (i.e., no visible turbidity).

[9] = Calcein dye leakage assay from LUVs; type: biochemical; conditions: P:L 1:100; pH 7.4
From the text: To verify the pore-forming mechanism of action of the designed AMPs, we performed a calcein leakage assay. […] These lipid vesicles were used as simple mimics of bacterial membranes.[58] At the lowest tested peptide-to-lipid (P:L) ratio of 1:100 (mol/mol), three mutants (LP18, LP26, and LP40) caused >90% leakage, which was higher than the leakage caused by LP1 (87%). […] At the same concentration, LP23 caused leakage equivalent to that caused by LP1. Other mutants had lower leakage activity. At a higher P:L ratio of 1:50, all the abovementioned mutants caused 100% leakage, equivalent to that caused by LP1.
Pore-forming activity was tested using a dye leakage assay measuring the leakage of self-quenching fluorescent dye calcein from POPC:POPG (1:1 mol/mol) LUVs. DiD was mixed with lipids (1:500 mol/mol), and lipid film was created by evaporating chloroform, followed by 4 h of desiccation. Dried lipid film was dissolved in calcein buffer (35 mM calcein, 25 mM NaH2PO4·H2O and Na2HPO4·7H2O (3:7 mol/mol), 20 mM NaCl, and 1 mM EDTA). After 10 freeze–thaw cycles, the sample was extruded 50 times through a 100 nm pore size polycarbonate membrane filter. Free calcein in solution was removed using a HiTrap Desalting column. The concentrations of LUVs and peptides were adjusted to 0.02 and 0.1 mM, respectively, in PBS (25 mM NaH2PO4·H2O and Na2HPO4·7H2O (3:7 mol/mol), 100 mM NaCl, and 1 mM EDTA). The investigated P/L ratio was from 1:100 to 1:10 (mol/mol). Fluorescence intensity was measured using a HORIBA Scientific Jobin Yvon FluoroLog-3 Modular Spectrofluorometer (USA). Excitation and emission wavelengths were set to 495 and 520 nm, respectively. Triton X-100 10% caused 100% leakage used for normalization.

[10] = tested on: E. coli (TOP10); assay: Broth microdilution antimicrobial susceptibility assay; type: cell-based, Escherichia coli; conditions: TOP10, 24 h
From the text: as §2, §3

[11] = tested on: human red blood cells (HRBCs); conditions: read-out: Hemolysis toxicity (IC50); 1 h incubation
Procedure: To investigate the toxicity for normal human cells, all peptides were first screened against human red blood cells (HRBCs) using a hemolysis assay (Table 2 and Figure S4).
Hemolysis toxicity was tested against HRBCs. Blood samples, collected from the university hospital, were centrifuged twice at 700 × g and once at 1000 × g for 8 min at 4 °C to obtain erythrocyte pellets. Supernatants were always discarded, and pellets were resuspended in PBS (the same as the antimicrobial susceptibility assay). The final RBC suspension was 0.5% (v/v). Dilution series was prepared for concentrations 50 to 0.1 μM in a V-bottom 96-well plate, followed by the addition of RBC suspension. […] After 1 h of incubation at 37 °C, the well plate was centrifuged at 1000 × g for 10 min at 4 °C. The supernatant, collected in a flat-bottom well plate, was measured for OD415 using Tecan Microplate Reader Infinite F500.

[12] = tested on: E. coli (E1098); conditions: E1098, 18 h
[13] = tested on: murine macrophages RAW 264.7; conditions: 24 h
Procedure: as §1

Compound: CC[C@H](C)[C@H](NC(=O)CN)C(=O)NCC(=O)N[C@@H](C)C(=O)N[C@H](C(=O)N[C@@H](CC(C)C)C(=O)N[C@@H](CCCCN)C(=O)N[C@H](C(=O)N[C@@H](CC(C)C)C(=O)N[C@H](C(=O)N[C@H](C(=O)NCC(=O)N[C@@H](CC(C)C)C(=O)N1CCC[C@H]1C(=O)N[C@@H](C)C(=O)N[C@@H](CC(C)C)C(=O)N[C@H](C(=O)N[C@@H](CO)C(=O)N[C@@H](Cc1c[nH]c2ccccc12)C(=O)N[C@H](C(=O)N[C@@H](CCCCN)C(=O)N[C@@H](CCCNC(=N)N)C(=O)N[C@@H](CCCCN)C(=O)N[C@@H](CCCNC(=N)N)C(=O)N[C@@H](CCC(N)=O)C(=O)N[C@@H](CCC(N)=O)C(N)=O)[C@@H](C)CC)[C@@H](C)CC)[C@@H](C)O)[C@@H](C)O)C(C)C)C(C)C [Melittin, reference compound]
- IC50 [1]: < 5 µM
- Activity against cancer cells (cell viability) as a function of pH and medium [2]: did not allow cell growth

Compound: HHHHLKKILKKLFQFINQLDNQLQDIHHHH [LP40]
- IC50 [3]: > 70 µM
- Effect on healthy primary cells in whole blood [4]: no apparent deleterious effect
- IC50 [5]: > 70 µM
- Change in mouse weight [6]: no significant change in mouse weight
- IC50 [7]: > 70 µM

Compound: KKKKIKKIIKKIFQFINQIDNQIQDIKQNK-NH2 [LP33]
- MIC [8]: > 50 µM
- IC50 [3]: 27 µM
- Calcein leakage (%) from LUVs at P:L 1:100 (mol/mol) [9]: 28.3 ± 9.3%
- IC50 [5]: < 2 µM
- MIC [10]: 50 µM
- IC50 [7]: > 128 µM
- IC50 [11]: > 50 µM

Compound: KKKKLKKILKKLFQFIQQLDQQLQDIKQQK-NH2 [LP35]
- MIC [8]: 0.4 µM
- MIC [12]: 0.5 µM
- Calcein leakage (%) from LUVs at P:L 1:100 (mol/mol) [9]: 63.3 ± 6.7%
- MIC [10]: 0.4 µM
- IC50 [13]: 36 µM
